# Experiments:
# [1] = target: S. aureus ATCC 29213 FabI (Staphylococcus aureus (strain MRSA252), UniProt Q6GI75); assay: Staphylococcus aureus FabI enzyme inhibition assay; format: biochemical; settings: pH 6.5, 30 minutes at room temperature
# Experimental: FabI enzyme inhibition assays were carried out in half-area, 384-well microtitre plates. Compounds were evaluated in 40-μl assay mixtures containing 100 mM NaADA, pH 6.5 (ADA=N-[2-acetamido]-2iminodiacetic acid), 250 μM crotonoyl-CoA, 625 μM NADH and 50 μg/ml S. aureus ATCC 29213 FabI. Inhibitors were typically varied over the range of 50 to 0.39 μM. The reaction mixtures were incubated for 30 minutes at room temperature and the reaction was stopped by adding 200 mM Tris buffer (pH 9.0) to create a pH-shift. The consumption of NADH was monitored by measuring the change in absorbance at […]. By comparing sample readings to those of negative (absence of compound) and positive (absence of enzyme) controls, the percent inhibition of enzymatic activity of the compounds was determined. A best-fit curve is fitted by a minimum of squares method. From this an IC50-value (expressed in μg/ml), resulting in 50% inhibition of enzymatic activity, was obtained.
# [2] = test system: Staphylococcus aureus ATCC 29213; assay: Antibacterial susceptibility testing: IC90 determination (STA); format: cell-based; settings: STA ATCC 29213, 90% inhibitory concentration for bacterial growth
# Experimental: (§1) The following bacteria were used: Staphylococcus aureus ATCC 29213, methicillin-resistant Staphylococcus aureus (MRSA) ATCC 700788 and Escherichia coli ATCC 35218. The bacteria used in this study were grown overnight in flasks containing 100 ml Mueller-Hinton broth (Difco cat. nr. 0757-17) in sterile de-ionized water, with shaking, at 37° C. Stocks were store at −70° C. until use.
# (§2) Bacteria were incubated on a tryptic soy agar plate containing 5% sheep blood (Becton Dickinson cat. nr. 254053) for 18-24 hours at 35° C. in aerobic conditions (first passage). For the second passage, fresh Mueller-Hinton broth is inoculated with 5-10 colonies and grown overnight at 35° C. until turbidity (reaching log-phase) in aerobic conditions is reached. The bacterial suspension is then adjusted to 0.5 McFarland density and further diluted 1:100 in Mueller Hinton broth medium. This is used as inoculum.
# (§3) MIC assays were performed by the broth microdilution method in a 96-well format (flat-bottom microtitre plates) with a final volume of 0.1 ml Mueller Hinton broth containing two-fold serial dilutions of compounds and inoculated with 5×10^5 CFU/ml of bacteria (standard inoculum size according to CLSI guidelines). Inhibitors are typically varied over the range of 63 to 0.49 μM. The final DMSO concentration in the assay was 1.25% (maximum tolerable DMSO concentration=6%). In the assays where the effect of human serum on the activity of the compounds against S. aureus was tested, human serum was added at a final concentration of 10%. The plates were incubated at 35° C. for 16-20 hours. At the end of incubation the bacterial growth was quantified fluorometrically. For this, resazurin was added to all wells and the plates were re-incubated. The incubation time is dependent on the type of bacteria. A change in color from blue to pink indicated the growth of bacteria. The fluorescence was read in computer-controlled fluorometer (Fluoroskan Ascent FL, Labsystems) at an excitation wavelength 540 nm and an emission wavelength of 590 nm. The % growth inhibition achieved by the compounds was calculated according to standard methods. The IC90 (expressed in μg/ml) was defined as the 90% inhibitory concentration for bacterial growth. A panel of reference compounds were simultaneously tested for QC approval.
# [3] = In vivo pharmacokinetic and oral bioavailability; settings: male Swiss mice; for C0: 20% HP-β-CD solution
# Experimental: The in vivo pharmacokinetics and oral bioavailability of the compound of the examples was/is investigated in male Swiss mice (fed) following single intravenous (i.v.) bolus and oral (p.o.) administration. For the i.v. and p.o. solution formulations, the compound was/is dissolved in a 20% HP-β-CD solution. The pH of the formulations was/is around pH 4. All i.v. formulations were isotonic.
# [4] = test system: Staphylococcus aureus ATCC 43300; reference strain MRSA; assay: Antimicrobial spectrum, broth microdilution MIC; format: cell-based; settings: S. aureus ATCC 43300
# Experimental: (§4) Minimum Inhibitory Concentrations (MICs) were determined in accordance with the Clinical and Laboratory Standards Institute (CLSI) methodology against aerobic bacteria (CLSI M07-A8) (see Clinical and Laboratory Standards Institute. 2009. Methods for dilution antimicrobial susceptibility tests for bacteria that grow aerobically. CLSI document M07-A8, Vol. 29, No. 2.) by the broth microdilution method with cation-adjusted Mueller-Hinton broth (CA-MHB) medium for the majority of organisms, except for Haemophilus influenza, where Haemophilis test medium (HTM) broth was used. Descriptions of the individual organisms can be found in the table. Where possible, ATCC standard strains were tested.
# (§5) The inoculum density for the susceptibility testing was standardized to give a final inoculum of approximately 5×10^5 CFU/mL.
# (§6) Stock solutions of the compounds were prepared in DMSO at concentrations of 1 mg/mL. Linezolid was prepared in DMSO at a concentration of 2 mg/mL. Stock solutions of all compounds were diluted into CA-MHB to give a range of two-fold dilutions, depending upon the sensitivity of the organism being tested.
# [5] = test system: Escherichia coli ATCC 25922; reference strain; assay: Antimicrobial spectrum, broth microdilution MIC; format: cell-based; settings: E. coli ATCC 25922
# Experimental: as §4, §5, §6
# [6] = test system: Staphylococcus aureus ATCC 29213; reference strain MSSA; assay: Antimicrobial spectrum, broth microdilution MIC; format: cell-based; settings: S. aureus ATCC 29213
# Experimental: as §4, §5, §6
# [7] = test system: Haemophilus influenzae ATCC 49247; reference strain; assay: Antimicrobial spectrum, broth microdilution MIC; format: cell-based; settings: H. influenza ATCC 49247
# Experimental: as §4, §5, §6
# [8] = test system: Escherichia coli Tol C mutant; assay: Antimicrobial spectrum, broth microdilution MIC; format: cell-based; settings: E. coli tolC mutant
# Experimental: as §4, §5, §6
# S. aureus = assay: Antibacterial susceptibility testing: IC90 determination with 10% human serum (STA + 10% HS); format: cell-based, Staphylococcus aureus; settings: human serum at a final concentration of 10%
# Experimental: as §1, §2, §3
# The results are depicted in the table D2 below (STA+10% HS).
# Human HelaM cells = assay: Cytotoxicity MTT assay (TOX HELAM); format: cell-based; settings: 72 hours
# Experimental: Cytotoxicity of the compounds was evaluated using the MTT assay. Human HelaM cells grown in 96-well plates were exposed to serial dilutions of the tested compounds (final volume of 0.2 ml) and incubated for 72 hours at 37° C. and 5% CO2. Inhibitors are typically varied over the range of 25 to 0.8 μM. The final DMSO concentration in the assay is 0.5%. MTT (3-(4,5-Dimethylthiazol-2-yl)-2,5-diphenyltetrazolium bromide, a tetrazole) was added and reduced to purple formazan only in living cells. Solubilization of the formazan crystals was achieved by adding 100 μl 2-propanol. Cell viability was determined by measuring the absorbance of the reduced formazan, giving a purple color, at 540 nm and 690 nm. The absorbance measured at 690 nm was automatically subtracted from the absorbance at 540 nm, to eliminate the effects of non-specific absorption. The percent cytotoxicity achieved by the compounds was calculated according to standard methods. Cytotoxicity is reported as CC50, the concentration that causes a 50% reduction in cell viability.
# The results are depicted in the table D2 below (TOX HELAM).
# [9] = test system: Staphylococcus aureus NRS119; LZD-R; assay: Antimicrobial spectrum, broth microdilution MIC; format: cell-based; settings: S. aureus NRS119
# Experimental: as §4, §5, §6
# [10] = test system: Staphylococcus aureus NRS120; LZD-R; assay: Antimicrobial spectrum, broth microdilution MIC; format: cell-based; settings: S. aureus NRS120
# Experimental: as §4, §5, §6
# [11] = test system: Staphylococcus aureus NRS121; LZD-R; assay: Antimicrobial spectrum, broth microdilution MIC; format: cell-based; settings: S. aureus NRS121
# Experimental: as §4, §5, §6
# [12] = p.o. 10 mg/kg vs i.v. 2.5 mg/kg
SMILES,FabI IC50 [1],STA (361.159) IC90 [2],AUC0-inf ([3]; i.v. 2.5 mg/kg),Half life (t1/2) ([3]; i.v. 2.5 mg/kg),Plasma clearance Cl ([3]; i.v. 2.5 mg/kg),Vdz ([3]; i.v. 2.5 mg/kg),C0 ([3]; i.v. 2.5 mg/kg),"Oral bioavailability [3, 12]",Cmax ([3]; p.o. 10 mg/kg),Tmax ([3]; p.o. 10 mg/kg),MIC90 [4],MIC90 [5],MIC90 [6],MIC90 [7],MIC90 [8],STA + 10% HS (361.169) IC90 (S. aureus),TOX HELAM (222.125) CC50 (Human HelaM cells),further results
O=C1CCc2cc(/C=C/C(=O)N3CC4C=C(c5ccncc5)CC4C3)cnc2N1 (stereo not shown) [compound 12],0.44 µg/mL,0.33 µg/mL,1124 ng·h/mL,1.1 h,36.7 mL/min/kg,3.7 L/kg,2333 ng/mL,21%,275 ng/mL,1.0 h,0.125 µg/mL,>8 µg/mL,0.125 µg/mL,1 µg/mL,0.25 µg/mL,0.53 µg/mL,>9.707 µg/mL,AUC0-last ([3]; p.o. 10 mg/kg): 914 ng·h/mL
O=C1CCc2cc(/C=C/C(=O)N3CC4C=C(c5ccccc5)CC4C3)cnc2N1 (stereo not shown) [compound 1],0.32 µg/mL,0.09 µg/mL,7074 ng·h/mL,2.9 h,5.83 mL/min/kg,1.5 L/kg,2921 ng/mL,–,–,–,0.016 µg/mL,>32 µg/mL,0.016 µg/mL,–,≦0.03 μg/ml,0.17 µg/mL,>3.8547 µg/mL,Oral bioavailability ([3]; p.o. 5 mg/kg vs i.v. 2.5 mg/kg): 86%; AUC0-inf ([3]; p.o. 5 mg/kg): 12158 ng·h/mL; Cmax ([3]; p.o. 5 mg/kg): 1720 ng/mL; Half life (t1/2) ([3]; p.o. 5 mg/kg): 3.1 h; Tmax ([3]; p.o. 5 mg/kg): 2.0 h; MIC90 [9]: 0.03 µg/mL; MIC90 [10]: 0.016 µg/mL; MIC90 [11]: 0.016 µg/mL
O=C1CCc2cc(/C=C/C(=O)N3CC4C=C(c5ccsc5)CC4C3)cnc2N1 (stereo not shown) [compound 10],0.53 µg/mL,0.08 µg/mL,3992 ng·h/mL,1.3 h,10.7 mL/min/kg,1.2 L/kg,4154 ng/mL,81%,3537 ng/mL,1.0 h,0.03 µg/mL,>8 µg/mL,0.015 µg/mL,>8 µg/mL,0.125 µg/mL,0.13 µg/mL,>3.915 µg/mL,AUC0-inf ([3]; p.o. 10 mg/kg): 12376 ng·h/mL; Half life (t1/2) ([3]; p.o. 10 mg/kg): 2.2 h
O=C1CCc2cc(/C=C/C(=O)N3C[C@@H]4CN(c5ccccc5)C[C@@H]4C3)cnc2N1 [compound 2],0.78 µg/mL,1.02 µg/mL,–,–,–,–,–,–,–,–,0.5 µg/mL,>8 µg/mL,0.25 µg/mL,>8 µg/mL,0.25 µg/mL,1.09 µg/mL,>19.4696 µg/mL,–
O=C1CCc2cc(/C=C/C(=O)N3CC4C=C(c5ccoc5)CC4C3)cnc2N1 (stereo not shown) [compound 22],0.58 µg/mL,0.23 µg/mL,–,–,–,–,–,–,–,–,0.125 µg/mL,>8 µg/mL,0.06 µg/mL,4 µg/mL,1 µg/mL,0.25 µg/mL,>9.43 µg/mL,–

# Source: patent publication US9617262B2, “Antibacterial cyclopental[C]pyrrole substituted 3,4-dihydro-1H-[1,8]naphthyridinones” (Janssen Sciences Ireland UC, priority 2011, dated 2017)
